Usually MIC stands for the lowest concentration that inhibits growth of the organism. The low end stands for a more susceptible organism, the high end for a less susceptible organism.

No end group written: not given here.

In series [1] the test system is Lactobacillus acidophilus ATCC 4356. The series can be described thus: MIC, broth microdilution. Type of series: cell-based. The settings on record: two-fold dilution series from 1.050 mM stock in Mueller-Hinton Broth or Brucella Broth; 5.10^5 CFU/mL; visible growth after 24 or 48 h. A general note: Dilution methods test growth across graded concentrations, often in twofold steps.

The next series deals with Micrococcus luteus 272. Description: MIC, broth microdilution. Type of series: cell-based. The settings on record: two-fold dilution series from 1.050 mM stock in Mueller-Hinton Broth or Brucella Broth; 5.10^5 CFU/mL; visible growth after 24 or 48 h.
The format of series [2] is in vitro ADME. As to the method:
The dynamic GI TIM-1 Model (TNO Nutrition and Food Research Institute, Zeist, the Netherlands) described previously by was used for evaluation of peptide digestibility. Gastric pH began at 4.5 and decreased gradually to 3.6 after 20 min, 2.7 after 40 min and 2.0 after 60 min of digestion by injecting 0.5 mol/L HCl, finally reaching 1.7 after 120 min. The pH of the duodenal, jejunal and ileal compartments was adjusted to 6, 6.8 and 7.2, respectively, by injecting 0.5 mol/L sodium bicarbonate solution. Gastric secretions consisted of pepsin (0.163 mg/mL) from porcine gastric mucosa (EC 3.4.23.1; Sigma-Aldrich Canada Ltd., Oakville, ON, Canada) and lipase (0.133 mg/mL) from Rhizopus oryzae (EC 3.1.1.3; Amano Pharmaceuticals, Nagoya, Japan), both in an electrolyte solution (NaCl, 6.2 g/L; KCl, 2.2 g/L; CaCl2, 0.3 g/L; NaHCO3, 1.5 g/L) delivered at a flow rate of 0.25 mL/min. […]
To check the digestibility of the synthetic GAPDH-related derived peptide, TIM samples were separated by SPE-C18 before analysis by FPLC with ionic exchange column (IEX). […] The absorbance was recorded at 214 nm and collected fractions were screened for sequence peptides by LC-MS/MS analysis as described above.

Another series deals with Bacillus megaterium B301. To be noted: Bacillus B301, 48 h.
The subject of series [3] is Blautia coccoides ATCC 29236. The settings on record: ATCC 29236, 48 h.
The subject of series [4] is Bifidobacterium infantis ATCC 15697. The settings on record: ATCC 15697, 48 h.
The subject of series [5] is Enterococcus faecalis ATCC 29212. The settings on record: ATCC 29212, 48 h.
The test system of a further series is Enterococcus faecium L1. The settings on record: L1, 48 h.
In series [6] the test system is Listeria ivanovii ATCC 19119. The settings on record: ATCC 19119, 48 h.
Series [7] relates to Listeria monocytogenes ATCC 15313. To be noted: ATCC 15313, 48 h.
Series [8] concerns Staphylococcus aureus ATCC 25923. To be noted: ATCC 25923, 48 h.
The test system of series [9] is Bacteroides thetaiotaomicron ATCC 29741. To be noted: two-fold dilution series from 1.050 mM stock in Mueller-Hinton Broth or Brucella Broth; 5.10^5 CFU/mL; visible growth after 24 or 48 h.
The test system of series [10] is Escherichia coli ATCC 25922. The settings on record: ATCC 25922, 48 h.
Series [11] relates to Pseudomonas aeruginosa ATCC 27853. The settings on record: ATCC 27853, 48 h.
Series [12] has as its system Vibrio parahaemolyticus ALN-0312. The settings on record: 48 h.
The test system of a further series is gastric pepsin. The settings on record: upper gastrointestinal conditions; cited from earlier work. The source says:
Food additives such as AMPs must be safe for the human microbiota and the environment. Consequently, knowing the digestibility of AMPs in the human gastrointestinal tract is critical and should not be underestimated. The TIM-1 model used to evaluate the stability of the synthetic peptide simulated the major GI stress conditions, such as gastric acid environment, excretion of proteolytic enzymes and bile salts, and peristaltic movements.

With KVEIVAINDPFIDL [AMGAP], the MIC is reported as 0.263 mM in [1]; 0.263 mM in the series on Micrococcus luteus 272; greater than 1.050 mM in the series on Bacillus megaterium B301; greater than 1.050 mM in series [3]; greater than 1.050 mM in series [4]; greater than 1.050 mM in [5]. Further, the minimum inhibitory concentration (MIC) against Enterococcus faecium L1 is greater than 1.050 mM; in series [6], 0.131 mM; in series [7], 0.131 mM; in [8] it was greater than 1.050 mM; in series [9] it was 0.263 mM; in [10], greater than 1.050 mM. For the same substance, the MIC in series [11] and in series [12] was greater than 1.050 mM throughout. The “Proportion of intact synthetic peptide in the effluent fraction” value in series [2] came to 2%. In addition, the “Sensitivity to the digestive process” value in series [2] (pH 2.7) is “sensitive”.

In the case of “pediocin PA-1: pediocin PA-1, compared for stability under upper gastrointestinal conditions (KYYGNGVTCGKHSCSVDWGKATTCIINNGAMAWATGGHQGNHKC; ends and bridges not checked; cysteine pairing not given here; UniProt P29430 19-62, looked up)”, the “Stability with gastric pepsin combined with low pH” value in the series on gastric pepsin is “reduced its stability”.

The values are drawn from publication PMC6669513, “Identification of A Novel Antibacterial Peptide from Atlantic Mackerel belonging to the GAPDH-Related Antimicrobial Family and Its In Vitro Digestibility” (Marine Drugs, 2019).
